Consider 34 compounds from patent publication US20250382273A1 (INSTITUT NATIONAL DE LA SANTE ET DE LA RECHERCHE MEDICALE, priority 2022, published 2025).

Usually EC50 stands for the concentration needed to bring the measured effect to its halfway point.

The first test deals with M. tuberculosis H37Rv_DdnL49P_gfp. The format is cell-based, Mycobacterium tuberculosis. The note with it: in combination with pretomanid, unit inferred; read-out: average EC50 H37Rv_DdnL49P_gfp.
Consider `COc1ccc(-c2ccc3nc(NC(=O)[C@@H]4C5C=CC(C5)[C@@H]4C(=O)O)sc3c2)cc1` (stereo partly drawn) [Example 54, 3-[[6-(4-methoxyphenyl)-1,3-benzothiazol-2-yl]carbamoyl]bicyclo[2.2.1]hept-5-ene-2-carboxylic acid], for which the EC50 is 0.69 µM.
As for `O=C(Nc1nc2ccc(-c3ccc(C(F)(F)F)cc3)cc2s1)[C@@H]1C2C=CC(C2)[C@@H]1C(=O)O` (stereo partly drawn) [Example 60, 3-[[6-[4-(trifluoromethyl)phenyl]-1,3-benzothiazol-2-yl]carbamoyl]bicyclo[2.2.1]hept-5-ene-2-carboxylic acid], the EC50 was determined as 0.48 µM.

The same test, now with this note: read-out: EC50 H37Rv_DdnL49P_gfp.
As for `O=C(O)C1C2C=CC(C2)C1C(=O)Nc1nc2ccc([N+](=O)[O-])cc2s1` (stereo not drawn) [Example 38, 3-[(6-nitro-1,3-benzothiazol-2-yl)carbamoyl]bicyclo[2.2.1]hept-5-ene-2-carboxylic acid], the EC50 lay in the range of 5 to 10 µM.
On the same count and under the same terms, next, `N#Cc1ccc2nc(NC(=O)[C@@H]3C4C=CC(C4)[C@@H]3C(=O)O)sc2c1` (stereo partly drawn) [Example 40, 3-[(6-cyano-1,3-benzothiazol-2-yl)carbamoyl]bicyclo[2.2.1]hept-5-ene-2-carboxylic acid]: 5 to 10 µM; `COC(=O)c1ccc2nc(NC(=O)[C@@H]3C4C=CC(C4)[C@@H]3C(=O)O)sc2c1` (stereo partly drawn) [Example 41, 3-[(6-methoxycarbonyl-1,3-benzothiazol-2-yl)carbamoyl]bicyclo[2.2.1]hept-5-ene-2-carboxylic acid]: 1 to 5 µM.
The same measure, in the same setting: next, `O=C(Nc1nc2ccc(F)cc2s1)[C@@H]1C2C=CC(C2)[C@@H]1C(=O)O` (stereo partly drawn) [Example 42, 3-[(6-fluoro-1,3-benzothiazol-2-yl)carbamoyl]bicyclo[2.2.1]hept-5-ene-2-carboxylic acid]: 1 to 5 µM; `O=C(Nc1nc2ccc(C(F)(F)F)cc2s1)[C@@H]1C2C=CC(C2)[C@@H]1C(=O)O` (stereo partly drawn) [Example 43, 3-[[6-(trifluoromethyl)-1,3-benzothiazol-2-yl]carbamoyl]bicyclo[2.2.1]hept-5-ene-2-carboxylic acid]: 1 to 5 µM; `O=C(Nc1nc2ccc(OC(F)(F)F)cc2s1)[C@@H]1C2C=CC(C2)[C@@H]1C(=O)O` (stereo partly drawn) [Example 44, 3-[[6-(trifluoromethoxy)-1,3-benzothiazol-2-yl]carbamoyl]bicyclo[2.2.1]hept-5-ene-2-carboxylic acid]: 1 to 5 µM.
In the case of `O=C1[C@@H]2[C@H](C(=O)N1c1nc3ccc(OC(F)(F)F)cc3s1)[C@@H]1C=C[C@H]2C1` [Example 45, (1R,2S,6R,7S)-4-[6-(trifluoromethoxy)-1,3-benzothiazol-2-yl]-4-azatricyclo[5.2.1.02,6]dec-8-ene-3,5-dione], the EC50 lay within 5 to 10 µM.
For `O=C(Nc1nc2ccc(I)cc2s1)[C@@H]1C2C=CC(C2)[C@@H]1C(=O)O` (stereo partly drawn) [Example 49, 3-[(6-iodo-1,3-benzothiazol-2-yl)carbamoyl]bicyclo[2.2.1]hept-5-ene-2-carboxylic acid], the EC50 lay within 1 to 5 µM.
As for `O=C(Nc1nc2ccc(-c3ccccc3)cc2s1)[C@@H]1C2C=CC(C2)[C@@H]1C(=O)O` (stereo partly drawn) [Example 51], the EC50 was 1 to 5 µM.
Turning to `O=C(Nc1nc2ccc(C3CCCCC3)cc2s1)[C@@H]1C2C=CC(C2)[C@@H]1C(=O)O` (stereo partly drawn) [Example 52, 3-[(6-cyclohexyl-1,3-benzothiazol-2-yl)carbamoyl]bicyclo[2.2.1]hept-5-ene-2-carboxylic acid], the EC50 lay within 1 to 5 µM.
The same measure, in the same setting: next, `Cc1ccc(-c2ccc3nc(NC(=O)[C@@H]4C5C=CC(C5)[C@@H]4C(=O)O)sc3c2)cc1` (stereo partly drawn) [Example 53, 3-[[6-(p-tolyl)-1,3-benzothiazol-2-yl]carbamoyl]bicyclo[2.2.1]hept-5-ene-2-carboxylic acid]: under 1 µM; `COc1ccc(-c2ccc3nc(NC(=O)[C@@H]4C5C=CC(C5)[C@@H]4C(=O)O)sc3c2)cc1` (stereo partly drawn) [Example 54, 3-[[6-(4-methoxyphenyl)-1,3-benzothiazol-2-yl]carbamoyl]bicyclo[2.2.1]hept-5-ene-2-carboxylic acid]: under 1 µM.
As to `O=C(Nc1nc2ccc(-c3ccc(Cl)cc3)cc2s1)[C@@H]1C2C=CC(C2)[C@@H]1C(=O)O` (stereo partly drawn) [Example 55, 3-[[6-(4-chlorophenyl)-1,3-benzothiazol-2-yl]carbamoyl]bicyclo[2.2.1]hept-5-ene-2-carboxylic acid], the EC50 is under 1 µM.
Regarding `O=C(Nc1nc2ccc(-c3ccc(Cl)c(Cl)c3)cc2s1)[C@@H]1C2C=CC(C2)[C@@H]1C(=O)O` (stereo partly drawn) [Example 56, 3-[[6-(3,4-dichlorophenyl)-1,3-benzothiazol-2-yl]carbamoyl]bicycle [2.2.1]hept-5-ene-2-carboxylic acid], the EC50 fell in the range of 1 to 5 µM.
On to `O=C(Nc1nc2ccc(-c3ccccc3C(F)(F)F)cc2s1)[C@@H]1C2C=CC(C2)[C@@H]1C(=O)O` (stereo partly drawn) [Example 57, 3-[6-[[2-(trifluoromethyl)phenyl]-1,3-benzothiazol-2-yl]carbamoyl]bicyclo[2.2.1]hept-5-ene-2-carboxylic acid], for which the EC50 was in the range of 10 to 20 µM.
On the same count and under the same terms, next, `O=C1C2C3C=CC(C3)C2C(=O)N1c1nc2ccc(-c3ccccc3C(F)(F)F)cc2s1` [Example 58, (1R,2S,6R,7S)-4-[6-[[2-(trifluoromethyl)phenyl]-1,3-benzothiazol-2-yl]-4-azatricyclo [5.2.1.02,6]dec-8-ene-3,5-dione]: 10 to 20 µM.
For the compound `O=C(Nc1nc2ccc(-c3cccc(C(F)(F)F)c3)cc2s1)[C@@H]1C2C=CC(C2)[C@@H]1C(=O)O` (stereo partly drawn) [Example 59, 3-[[6-[3-(trifluoromethyl)phenyl]-1,3-benzothiazol-2-yl]carbamoyl]bicyclo[2.2.1]hept-5-ene-2-carboxylic acid], the EC50 is 1 to 5 µM.
The same measure, in the same setting: next, `O=C(Nc1nc2ccc(-c3ccc(C(F)(F)F)cc3)cc2s1)[C@@H]1C2C=CC(C2)[C@@H]1C(=O)O` (stereo partly drawn) [Example 60, 3-[[6-[4-(trifluoromethyl)phenyl]-1,3-benzothiazol-2-yl]carbamoyl]bicyclo[2.2.1]hept-5-ene-2-carboxylic acid]: under 1 µM; `O=C1[C@@H]2[C@H](C(=O)N1c1nc3ccc(-c4ccc(C(F)(F)F)cc4)cc3s1)[C@@H]1C=C[C@H]2C1` [Example 61, (1R,2S,6R,7S)-4-[6-[4-(trifluoromethyl)phenyl]-1,3-benzothiazol-2-yl]-4-azatricyclo[5.2.1.02,6]dec-8-ene-3,5-dione]: under 1 µM; `O=C(Nc1nc2ccc(-c3ccc(OC(F)(F)F)cc3)cc2s1)[C@@H]1C2C=CC(C2)[C@@H]1C(=O)O` (stereo partly drawn) [Example 62, 3-[[6-[4-(trifluoromethoxy)phenyl]-1,3-benzothiazol-2-yl]carbamoyl]bicyclo[2.2.1]hept-5-ene-2-carboxylic acid]: under 1 µM.
The same measure, in the same setting: next, `O=C1[C@@H]2[C@H](C(=O)N1c1nc3ccc(-c4ccc(O)cc4)cc3s1)[C@@H]1C=C[C@H]2C1` [Example 63, (1R,2S,6R,7S)-4-[6-(4-hydroxyphenyl)-1,3-benzothiazol-2-yl]-4-azatricyclo[5.2.1.02,6]dec-8-ene-3,5-dione]: 5 to 10 µM; `O=C(Nc1nc2ccc(-c3ccncc3)cc2s1)[C@@H]1C2C=CC(C2)[C@@H]1C(=O)O` (stereo partly drawn) [Example 64, 3-[[6-(4-pyridyl)-1,3-benzothiazol-2-yl]carbamoyl]bicyclo[2.2.1]hept-5-ene-2-carboxylic acid]: 5 to 10 µM.
Consider `O=C1[C@@H]2C3C=CC(C3)[C@@H]2C(=O)N1c1nc2ccc(-c3ccc(F)nc3)cc2s1` [Example 65, (1R,2S,6R,7S)-4-[6-(6-fluoro-3-pyridyl)-1,3-benzothiazol-2-yl]-4-azatricyclo[5.2.1.02.6]dec-8-ene-3,5-dione], for which the EC50 lay in the range of 1 to 5 µM.
Consider `O=C(O)C1C2C=CC(C2)[C@H]1C(=O)Nc1nc2ccc(-c3ccc(C(F)(F)F)nc3)cc2s1` (stereo partly drawn) [Example 66, 3-[[6-[6-(trifluoromethyl)-3-pyridyl]-1,3-benzothiazol-2-yl]carbamoyl]bicyclo [2.2.1]hept-5-ene-2-carboxylic acid], for which the EC50 was in the range of 1 to 5 µM.
Still for that read-out and setting: next, `O=C1[C@@H]2[C@H](C(=O)N1c1nc3ccc(-c4ccc(C(F)(F)F)nc4)cc3s1)[C@@H]1C=C[C@H]2C1` [Example 67, (1R,2S,6R,7S)-4-[6-[6-(trifluoromethyl)-3-pyridyl]-1,3-benzothiazol-2-yl]-4-azatricyclo [5.2.1.02,6]dec-8-ene-3,5-dione]: 1 to 5 µM; `O=C1[C@@H]2[C@H](C(=O)N1c1nc3ccc(-c4ccsc4)cc3s1)[C@@H]1C=C[C@H]2C1` [Example 68, (1R,2S,6R,7S)-4-[6-(3-thienyl)-1,3-benzothiazol-2-yl]-4-azatricyclo[5.2.1.02,6]dec-8-ene-3,5-dione]: 1 to 5 µM; `O=C(Nc1nc2ccc(-c3ccoc3)cc2s1)[C@@H]1C2C=CC(C2)[C@@H]1C(=O)O` (stereo partly drawn) [Example 69, 3-[[6-(3-furyl)-1,3-benzothiazol-2-yl]carbamoyl]bicyclo[2.2.1]hept-5-ene-2-carboxylic acid]: under 1 µM.
As for `O=C1[C@@H]2[C@H](C(=O)N1c1nc3ccc(-c4ccoc4)cc3s1)[C@@H]1C=C[C@H]2C1` [Example 70, (1R,2S,6R,7S)-4-[6-(3-furyl)-1,3-benzothiazol-2-yl]-4-azatricyclo[5.2.1.02,6]dec-8-ene-3,5-dione], the EC50 was in the range of 1 to 5 µM.
For the compound `C#CCOc1ccc(-c2ccc3nc(N4C(=O)[C@@H]5[C@H](C4=O)[C@@H]4C=C[C@H]5C4)sc3c2)cc1` [Example 71, (1R,2S,6R,7S)-4-[6-(4-prop-2-ynoxyphenyl)-1,3-benzothiazol-2-yl]-4-azatricyclo[5.2.1.02,6]dec-8-ene-3,5-dione], the concentration giving a half-maximal response (EC50) was under 1 µM.
The same measure, in the same setting: next, `C#Cc1ccc2nc(N3C(=O)[C@@H]4[C@H](C3=O)[C@@H]3C=C[C@H]4C3)sc2c1` [Example 72, (1R,2S,6R,7S)-4-(6-ethynyl-1,3-benzothiazol-2-yl)-4-azatricyclo[5.2.1.02,6]dec-8-ene-3,5-dione]: 1 to 5 µM.
Turning to `C#CCOc1ccc2nc(N3C(=O)[C@@H]4[C@H](C3=O)[C@@H]3C=C[C@H]4C3)sc2c1` [Example 73, (1R,2S,6R,7S)-4-(6-prop-2-ynoxy-1,3-benzothiazol-2-yl)-4-azatricyclo[5.2.1.02,6]dec-8-ene-3,5-dione], the EC50 was under 1 µM.
With `O=C1[C@@H]2C3C=CC(C3)[C@@H]2C(=O)N1c1nc2c(O)cccc2s1` [Example 74], the EC50 fell in the range of 1 to 5 µM.
As to `C#CCOc1cccc2sc(NC(=O)[C@@H]3C4C=CC(C4)[C@@H]3C(=O)O)nc12` (stereo partly drawn) [Example 75, 3-[(4-prop-2-ynoxy-1,3-benzothiazol-2-yl)carbamoyl]bicyclo[2.2.1]hept-5-ene-2-carboxylic acid], the EC50 fell in the range of 1 to 5 µM.
As to `O=C(Nc1nc2ccc(C#Cc3ccccc3)cc2s1)[C@@H]1C2C=CC(C2)[C@@H]1C(=O)O` (stereo partly drawn) [Example 77, 3-[[6-(2-phenylethynyl)-1,3-benzothiazol-2-yl]carbamoyl]bicyclo[2.2.1]hept-5-ene-2-carboxylic acid], the EC50 was under 1 µM.
